# US7968535B2, “Use of azapaullones for preventing and treating pancreatic autoimmune disorders” (Develogen Atkiengesellschaft, priority 2005, dated 2011)
# Experiments:
# [1] = test system: INS-1E cells; assay: Caspase activity assay in glucose/palmitate stressed cells; type: cell-based, rat
# Experimental: (§1) The effects of the substance on cell viability, cell growth and specific apoptotic events such as caspases activity and DNA-fragmentation was monitored. INS-1E cell apoptosis was induced by treatment of cell cultures with toxic concentrations of glucose and palmitate for 24 hours. The substance of interest was added to the medium 1 hour prior to the addition of the toxic agents.
# Caspase activation is a characteristic of early apoptotic cells. The experiment was carried out as described above with the exception that the caspases activity assay was applied instead of the DNA-fragmentation assay (see Example 3 for details).
# (§2) 10,000 Ins-1E cells were seeded per 96-well (black 96-well tissue culture plates, Falcon #353948) in 100 μl culture medium (RPMI 1640 containing 11 mM glucose, 5% FCS, 10 mM HEPES, 50 μM 2-mercaptoethanol, 1 mM MEM sodium pyruvate, 100 U/ml penicillin, 100 μg/ml streptomycin) and cultivated at 37° C., 5% CO2 in humidified atmosphere for 3 days. Media was changed to 100 μl starvation medium (culture medium with only 5 mM glucose, 1% FCS) and the cells were re-incubated for 1 day. Then media was exchanged to starvation medium containing test substances.
# (§3) Apoptosis of Ins-1E cells was induced by addition of a combination of BSA coupled palmitate and glucose (pal/gluc) or a combination of cytokines (cyt) 1 hour after starting the treatment with test substances: pal/gluc: 0.3 mM palmitate:BSA (palmitic acid sodium salt:fatty acid free BSA 6:1) and 25 mM glucose. 10×cyt: 0.04 ng/ml IL-1β and 1 ng/ml IFNγ. The cells were further incubated with test substances and apoptotic inducer for 24 hours.
# Caspase activity is a characteristic of early apoptotic cells. Their activity was quantified by an enzymatic assay (homogeneous caspases assay, Roche, cat. No. 03 005 372 001). Caspase activity was measured 3 hours after addition of caspases substrate according to the manufacturers guidelines.
# [2] = test system: INS-1E cells; assay: DNA-fragmentation ELISA in glucose/palmitate stressed cells; type: cell-based, rat; conditions: glucose/palmitate 24 hours; for reduction of cytosolic DNA-fragments: 20 μM
# Experimental: as §1
# DNA-fragmentation is a comparatively late apoptotic event comprising storage of nucleosomal DNA-fragments as mono- and oligo nucleosomes in the cytoplasm. The incubation of INS1-E cells with high concentrations of glucose and palmitate for 24 hours leads to DNA breakdown and the accumulation of nucleosomal DNA fragments in the cytoplasm. The detectable amount of cytosolic nucleosomal DNA fragments was reduced by about 17%, when cells were treated with the apoptosis inducing agents in combination with 10 μM 4-AKP.
# as §2, §3
# DNA-fragmentation is a late apoptotic event comprising storage of nucleosomal DNA-fragments as mono- and oligo nucleosomes in the cytoplasm. Their concentration was determined by ELISA (Cell death detection ELISA, Roche, cat. No. 1774425) according to the manufacturers guidelines.
# [3] = test system: INS-1E cells; assay: Glucolipotoxicity induced apoptosis of INS-1E cells (overall assessment); type: cell-based, rat; conditions: palmitate and glucose, 24 hours
# Experimental: as §1
# The effects of the test compounds on beta cell function were assessed using biological assays monitoring cellular metabolic activity as well as specific apoptotic events in Ins-1E cells.
# as §2, §3
# [4] = test system: human GSK3; assay: IC50 Profiler Express kinase assay; type: biochemical; conditions: 10-point curves in duplicate
# Experimental: Experiments were carried out by Upstate Ltd. according to the protocols described in KinaseProfiler™ Assay Protocols, IC50 Profiler Express™ (10-point curves in duplicate) Fall 2004 by Ustate Cell Signaling solutions.
# [5] = test system: INS-1E cells; assay: Ins-1E cell proliferation assay (BrdU incorporation); type: cell-based, rat
# Experimental: The proliferation rate of Ins-1E cells was determined by monitoring DNA synthesis using a 5-bromo-2′-deoxyuridine (BrdU) incorporation assay. BrdU is a halogenated nucleotide analogue of thymidine that is incorporated into DNA during the S-phase of the cell cycle. Pulse-labeling of DNA with BrdU and subsequent immunohistochemical detection of labeled nuclei was used to study the rate of cell proliferation. The treatment of INS-1E cells with 4-Azakenpaullone for 24 hours increases BrdU incorporation of Ins-1E cells in a concentration dependent manner, reaching a maximum of about 1.4 fold between 5 μM and 10 μM 4-AKP.
# The proliferation of Ins-1E insulinoma cells was determined by monitoring DNA synthesis as an indirect parameter of cell proliferation. The incorporation of the thymidine analogue 5-bromo-2′-deoxyuridine (BrdU) during replication into cellular DNA was used to label the DNA of mitotically active cells. After its incorporation into DNA, BrdU was detected by immunoassay.
# as §2, with “substances and the cells were further incubated for 24 h. For the last 4 hours BrdU was added to reach a concentration of 10 μM. Cell proliferation ELISA (Cell Proliferation ELISA, BrdU, chemiluminescence, Roche, cat. No. 1669915) was performed according to the manufacturers guidelines.” for “substances.”
# [6] = test system: INS-1E cells; assay: Cell number by CyQuant assay; type: cell-based, rat; conditions: 24 hours
# Experimental: as §1
# (§4) 10,000 Ins-1E cells were seeded per 96-well (black 96-well tissue culture plates, Falcon #353948) in 100 μl culture medium (RPMI 1640 containing 11 mM glucose, 5% FCS, 10 mM HEPES, 50 μM 2-mercaptoethanol, 1 mM MEM sodium pyruvate, 100 U/ml penicillin, 100 μg/ml streptomycin) and cultivated at 37° C., 5% CO2 in humidified atmosphere for 3 days. Media was changed to 100 μl starvation medium (culture medium with only 5 mM glucose, 1% FCS) and the cells were re-incubated for 1 day. Then media was exchanged to starvation medium containing test substances. […]
# Cell number was measured by staining of cellular DNA with CyQuant dye (CyQuant Cell Proliferation Assay Kit, Molecular Probes, cat. No. C-7026) which becomes fluorescent when bound to DNA. […]
# [7] = test system: INS-1E cells; assay: Viability by Alamar Blue reduction under glucose/palmitate; type: cell-based, rat; conditions: 24 hours
# Experimental: as §1, §4
# Viability was assessed by mitochondric reduction of the non toxic dye Alamar Blue (Bioscource, cat. No. DAL1025). The dye was added to the cells 4 hours before read-out according to the manufacturers guidelines. Basal fluorescence was measured immediately to be subtracted from the fluorescence after 4 hours. […]
# [8] = test system: panel of 28 protein kinases; assay: KinaseProfiler biochemical kinase activity assays; conditions: tested in parallel with 1-Azakenpaullone
# Experimental: (§5) Experiments were carried out by Upstate Ltd. according to the protocols described in KinaseProfiler™ Assay Protocols Fall 2004 by Ustate Cell Signaling solutions.
# (§6) Compounds 10c and e are structurally very similar to 1-Azakenpaullone and differ only by one substituent at position 9 of the D ring from their template 1-Azakenpaullone. […] These kinases were selected among about 250 different kinases based on their structural or functional similarity to GSK3, e.g. all available members of the CDK family were included in the survey because CDKs are most similar to GSK3 and several kinase inhibitors are known that inhibit members of both families. The direct comparison of different compounds in such an experiment provides information on the relative selectivity of the respective compounds.
# [9] = test system: cyclin-dependent kinases (CDKs); assay: KinaseProfiler biochemical kinase activity assays
# Experimental: as §5, §6
smiles,measurement,setting,value
"O=C1Cc2c([nH]c3ccc(O)cc23)-c2ncccc2N1 [Compound 10d, 9-Hydroxy-7,12-dihydropyrido[3′,2′:2,3]azepino[4,5-b]indole-6(5H)-one]",reduction of caspase activity,[1]; 20 μM,27%
same,reduction of cytosolic DNA-fragments,[2],23%
same,effect on glucolipotoxicity induced apoptosis,[3],slightly effects glucolipotoxicity induced apoptosis
"O=C1Cc2c([nH]c3ccc(Br)cc23)-c2ncccc2N1 [1-Azakenpaullone, reference compound]",inhibition of human GSK3,[4],potent inhibitor
"O=C1Cc2c([nH]c3ccc(Br)cc23)-c2cccnc2N1 [4-Azakenpaullone, reference compound]",reduction of caspase activity,[1]; 10 μM,18%
same,BrdU incorporation relative to untreated controls (maximum),"[5]; 24 hours, maximum between 5 μM and 10 μM",about 1.4 fold
same,increase in cell-number relative to untreated controls,[6],1.2 fold
same,reduction of cytosolic nucleosomal DNA fragments,[2]; 10 μM,about 17%
same,viability of Ins-1E cells subjected to apoptosis inducing concentrations of glucose and palmitate,[7],slightly improves the viability
same,effect on glucolipotoxicity induced apoptosis,[3],slightly antagonizes apoptotic processes
"O=C1Cc2c([nH]c3ccc(C(F)(F)F)cc23)-c2ncccc2N1 [Compound 10l, 9-Trifluoromethyl-7,12-dihydropyrido[3′,2′:2,3]azepino[4,5-b]indol-6(5H)-one]",BrdU incorporation relative to untreated controls (maximum),[5]; maximum between 1 μM and 5 μM,about 1.4 fold
same,effect on glucolipotoxicity induced apoptosis,[3],significantly effects glucolipotoxicity induced apoptosis
"COc1ccc2[nH]c3c(c2c1)CC(=O)Nc1cccnc1-3 [Compound 10a, 9-Methoxy-7,12-dihydro-pyrido[3′,2′:2,3]azepino[4,5-b]indole-6(5H)-one]",reduction of caspase activity,[1]; 20 μM,22%
same,proliferation of INS-1E cells (in words),[5],small effect
same,BrdU incorporation relative to untreated controls (maximum),[5]; at about 10 μM,about 1.2 fold
same,reduction of cytosolic DNA-fragments,[2],44%
same,effect on glucolipotoxicity induced apoptosis,[3],moderately prevents glucolipotoxicity induced apoptosis
"O=C1Cc2c([nH]c3ccc(Cl)cc23)-c2ncccc2N1 [Compound 10e, 9-Chloro-7,12-dihydropyrido[3′,2′:2,3]azepino[4,5-b]indole-6(5H)-one]",reduction of caspase activity,[1]; 20 μM,16%
same,BrdU incorporation relative to untreated controls (maximum),[5]; maximum between 1 μM and 10 μM,about 1.7 fold
same,kinase selectivity / activity profile,[8],selective kinase inhibitors
same,inhibition of cyclin-dependent kinases (CDKs),[9],significantly inhibits
same,reduction of cytosolic DNA-fragments,[2],23%
same,effect on glucolipotoxicity induced apoptosis,[3],slightly prevents glucolipotoxicity induced apoptosis
